Laboratory results: publication PMC3843727, “Isolation and Functional Characterization of Calcitonin-Like Diuretic Hormone Receptors in Rhodnius prolixus” (PLoS ONE, 2013)
Ends that are not written are not given here.

Assays:
[1] = tested on: Malpighian tubules; conditions: reference stimulant; cited from earlier work
[2] = tested on: Rhopr-CT/DH-R1-B; assay: Bioluminescence (calcium mobilization) assay, HEK293/CNG cells expressing Rhopr-CT/DH-R1-B; assay type: cell-based, R. prolixus; conditions: luminescence
Text: (§1) The largest cDNA fragments encoding Rhopr-CT/DH-R1 transcript variants and Rhopr-CT/DH-R2-B were amplified as described earlier (see section: Isolation of cDNA sequences encoding R. prolixus CT/DH receptors). The PCR products from these reactions were used as a template to amplify the ORF and introduce a Kozak translation initiation sequence at the 5´ end using the primers listed in Table S5 in File S1. The resulting products were cloned into pGEM-T Easy vector (Promega, Madison, WI, USA). These were then subcloned into either pIRES2-ZsGreen1 (Clontech, Mountain View, CA, USA) or pcDNA 3.1^+ (Life Technologies Corporation, Carlsbad, CA, USA) for expression in mammalian cells.
(§2) Human embryonic kidney (HEK)-293 cells stably expressing a modified cyclic nucleotide-gated (CNG) channel (HEK293/CNG) (previously available through BD Biosciences, Mississauga, ON, Canada) were used to functionally characterize the receptors. […]
(§3) Bioluminescence assay using CHO/G16 cells was performed as described previously. […] Cells were loaded in each well using an automated injector and the luminescence recorded over 20 seconds using a Wallac Victor2 plate reader (Perkin Elmer, San Diego, CA, USA). […] Dose-response curves were obtained and the EC50 values determined using Prism5 software.

[3] = tested on: Rhopr-CT/DH-R2-B; assay: Bioluminescence (calcium mobilization) assay, HEK293/CNG cells expressing Rhopr-CT/DH-R2-B; assay type: cell-based, R. prolixus; conditions: luminescence
Text: as §1, §2, §3

[4] = tested on: Rhopr-CT/DH-R1-C; assay: Bioluminescence (calcium mobilization) assay, HEK293/CNG cells expressing Rhopr-CT/DH-R1-C; assay type: cell-based, R. prolixus; conditions: luminescence
Text: as §1, §2, §3

Row | Molecule | rate of fluid secretion by MTs [1] | receptor activation [2] | receptor activation [3] | receptor activation [4]
1 | NCCc1c[nH]c2ccc(O)cc12 [serotonin] | maximum rate | – | – | –
2 | MQRPQGPSLSVANPIEVLRSRLLLEIARRRMKEQDASRVSKNRQYLQQI-NH2 [Rhopr-CRF/DH, R. prolixus corticotropin releasing-factor (CRF)-related diuretic hormone, custom synthesised by GenScript at > 95% purity] | maximum rate | None of these receptors were activated | None of these receptors were activated | None of these receptors were activated
3 | NSELINSLLSLPKNMNDA-NH2 [Drome-PDF, D. melanogaster pigment dispersing factor, custom synthesized by GeneMed Synthesis at > 95% purity] | – | None of these receptors were activated | None of these receptors were activated | None of these receptors were activated
